Experimental findings from ChEMBL document CHEMBL2073965, “Kinetic analysis of the primary active transport of conjugated metabolites across the bile canalicular membrane: comparative study of S-(2,4-dinitrophenyl)-glutathione and 6-hydroxy-5,7-dimethyl-2-methylamino-4-(3-pyridylmethyl)benzothiazole glucuronide” (J Pharmacol Exp Ther, 1997) are described below.

What all share (type): functional, cell membranes, Sprague-Dawley, Bile canalicular membrane vesicle
For series [1], the target named is T1, ATP-binding cassette sub-family C member 2 (Rattus norvegicus, UniProt Q63120). Nature of the series: TP_TRANSPORTER: inhibition of DNP-SG uptake in bile canalicular membrane vesicles from SD rat.
The target in series [2] is T1, ATP-binding cassette sub-family C member 2. Put plainly: TP_TRANSPORTER: inhibition of DNP-SG uptake (DNP-SG: 1 uM, 4MUG: 500 uM) in bile canalicular membrane vesicles from SD rat.
Substrate in series [3]: CNc1nc2c(Cc3cccnc3)c(C)c(O[C@@H]3O[C@H](C(=O)O)[C@@H](O)[C@H](O)[C@H]3O)c(C)c2s1
Nature of the series: (§1) TP_TRANSPORTER: uptake in bile canalicular membrane vesicles from SD rat.

Substrate in series [4]: N[C@@H](CCC(=O)N[C@H](CSc1ccc([N+](=O)[O-])cc1[N+](=O)[O-])C(=O)NCC(=O)O)C(=O)O
The series is described as §1.

As usually defined, the Ki is a measure of affinity in units of concentration, obtained from inhibition or displacement. Low values mean higher affinity, high ones lower affinity. `CNc1nc2c(Cc3cccnc3)c(C)c(O[C@@H]3O[C@H](C(=O)O)[C@@H](O)[C@H](O)[C@H]3O)c(C)c2s1` [E3040 GLUCURONIDE] displayed a Ki in series [1] of 3.84 µM.
With `O=C(O)[C@H]1O[C@@H](OCc2cc(=O)oc3cc(O)ccc23)[C@H](O)[C@@H](O)[C@@H]1O`, in series [2], the Activity result is “inhibitor [+]”.

B1: ATP-binding cassette sub-family C member 2 (Rattus norvegicus) (protein)
chain: MDKFCNSTFWDLSLLESPEADLPLCFEQTVLVWIPLGFLWLLAPWQLYSVYRSRTKRSSITKFYLAKQVFVVFLLILAAIDLSLALTEDTGQATVPPVRYTNPILYLCTWLLVLAVQHSRQWCVRKNSWFLSLFWILSVLCGVFQFQTLIRALLKDSKSNMAYSYLFFVSYGFQIVLLILTAFSGPSDSTQTPSVTASFLSSITFSWYDRTVLKGYKHPLTLEDVWDIDEGFKTRSVTSKFEAAMTKDLQKARQAFQRRLQKSQRKPEATLHGLNKKQSQSQDVLVLEEAKKKSEKTTKDYPKSWLIKSLFKTFHVVILKSFILKLIHDLLVFLNPQLLKLLIGFVKSSNSYVWFGYICAILMFAVTLIQSFCLQSYFQHCFVLGMCVRTTVMSSIYKKALTLSNLARKQYTIGETVNLMSVDSQKLMDATNYMQLVWSSVIQITLSIFFLWRELGPSILAGVGVMVLLIPVNGVLATKIRNIQVQNMKNKDKRLKIMNEILSGIKILKYFAWEPSFQEQVQGIRKKELKNLLRFGQLQSLLIFILQITPILVSVVTFSVYVLVDSANVLNAEKAFTSITLFNILRFPLSMLPMVTSSILQASVSVDRLERYLGGDDLDTSAIRRVSNFDKAVKFSEASFTWDPDLEATIQDVNLDIKPGQLVAVVGTVGSGKSSLVSAMLGEMENVHGHITIQGSTAYVPQQSWIQNGTIKDNILFGSEYNEKKYQQVLKACALLPDLEILPGGDMAEIGEKGINLSGGQKQRVSLARAAYQDADIYILDDPLSAVDAHVGKHIFNKVVGPNGLLAGKTRIFVTHGIHFLPQVDEIVVLGKGTILEKGSYRDLLDKKGVFARNWKTFMKHSGPEGEATVNNDSEAEDDDDGLIPTMEEIPEDAASLAMRRENSLRRTLSRSSRSSSRRGKSLKNSLKIKNVNVLKEKEKEVEGQKLIKKEFVETGKVKFSIYLKYLQAVGWWSILFIILFYGLNNVAFIGSNLWLSAWTSDSDNLNGTNNSSSHRDMRIGVFGALGLAQGICLLISTLWSIYACRNASKALHGQLLTNILRAPMRFFDTTPTGRIVNRFSGDISTVDDLLPQTLRSWMMCFFGIAGTLVMICMATPVFAIIIIPLSILYISVQVFYVATSRQLRRLDSVTKSPIYSHFSETVTGLPIIRAFEHQQRFLAWNEKQIDINQKCVFSWITSNRWLAIRLELVGNLVVFCSALLLVIYRKTLTGDVVGFVLSNALNITQTLNWLVRMTSEAETNIVAVERISEYINVENEAPWVTDKRPPADWPRHGEIQFNNYQVRYRPELDLVLKGITCNIKSGEKVGVVGRTGAGKSSLTNCLFRILESAGGQIIIDGIDVASIGLHDLRERLTIIPQDPILFSGSLRMNLDPFNKYSDEEVWRALELAHLRSFVSGLQLGLLSEVTEGGDNLSIGQRQLLCLGRAVLRKSKILVLDEATAAVDLETDSLIQTTIRKEFSQCTVITIAHRLHTIMDSDKIMVLDNGKIVEYGSPEELLSNRGSFYLMAKEAGIENVNHTEL
As usually defined, the Km is the concentration of substrate that gives half-maximal velocity. In the case of B1, the results for the Km in series [3] and in series [4] were 5.7 µM and 17.6 µM, respectively.
